# Reference: the NIST ThermoML archive (doi:10.1016/j.jct.2015.02.011)
# ± gives the expanded uncertainty stated by the source.
# Legend:
# [1] = refractive index (Na D-line) (dimensionless); settings: 100.7 kPa, Liquid, Standard Abbe refractometry
# [2] = 100.7 kPa, Liquid; for speed of sound: Frequency=3 MHz, Sing-around technique in a fixed-path interferometer; for mass density: Vibrating tube method
# [3] = refractive index (Na D-line) (dimensionless); xn = mol fraction of the nth substance listed; settings: 100.7 kPa, Liquid, Standard Abbe refractometry, x2 = 0
# [4] = xn = mol fraction of the nth substance listed; settings: 100.7 kPa, Liquid, x2 = 0; for speed of sound: Frequency=3 MHz, Sing-around technique in a fixed-path interferometer; for mass density: Vibrating tube method
smiles,measurement,setting,value
CCCCn1cc[n+](C)c1.F[P-](F)(F)(F)(F)F [1-butyl-3-methylimidazolium hexafluorophosphate],refractive index,[1]; 293.15 K,1.41068 ± 0.0017
same,refractive index,[1]; 298.15 K,1.40943 ± 0.0017
same,refractive index,[1]; 303.15 K,1.40818 ± 0.0017
same,refractive index,[1]; 308.15 K,1.40693 ± 0.0017
same,refractive index,[1]; 313.15 K,1.40567 ± 0.0017
same,refractive index,[1]; 318.15 K,1.40443 ± 0.0017
same,refractive index,[1]; 323.15 K,1.40312 ± 0.0017
same,speed of sound,[2]; 293.15 K,1454.6 ± 2.9 m/s
same,mass density,[2]; 293.15 K,1370.41 ± 2.2 kg/m3
same,speed of sound,[2]; 298.15 K,1442.3 ± 2.9 m/s
same,mass density,[2]; 298.15 K,1366.26 ± 2.2 kg/m3
same,speed of sound,[2]; 303.15 K,1430.2 ± 2.9 m/s
same,mass density,[2]; 303.15 K,1362.13 ± 2.2 kg/m3
same,speed of sound,[2]; 308.15 K,1418.4 ± 2.9 m/s
same,mass density,[2]; 308.15 K,1357.86 ± 2.2 kg/m3
same,speed of sound,[2]; 313.15 K,1406.7 ± 2.9 m/s
same,mass density,[2]; 313.15 K,1353.88 ± 2.2 kg/m3
same,speed of sound,[2]; 318.15 K,1395.2 ± 2.9 m/s
same,mass density,[2]; 318.15 K,1349.88 ± 2.2 kg/m3
same,speed of sound,[2]; 323.15 K,1384.1 ± 2.9 m/s
same,mass density,[2]; 323.15 K,1345.57 ± 2.2 kg/m3
CCCCCCn1cc[n+](C)c1.F[P-](F)(F)(F)(F)F [1-hexyl-3-methylimidazolium hexafluorophosphate],refractive index,[1]; 293.15 K,1.41958 ± 0.0017
same,refractive index,[1]; 298.15 K,1.41832 ± 0.0017
same,refractive index,[1]; 303.15 K,1.41692 ± 0.0017
same,refractive index,[1]; 308.15 K,1.41564 ± 0.0017
same,refractive index,[1]; 313.15 K,1.41422 ± 0.0017
same,refractive index,[1]; 318.15 K,1.41306 ± 0.0017
same,refractive index,[1]; 323.15 K,1.41175 ± 0.0017
same,speed of sound,[2]; 293.15 K,1437.7 ± 2.9 m/s
same,mass density,[2]; 293.15 K,1296.72 ± 2.1 kg/m3
same,speed of sound,[2]; 298.15 K,1424.3 ± 2.9 m/s
same,mass density,[2]; 298.15 K,1292.62 ± 2.1 kg/m3
same,speed of sound,[2]; 303.15 K,1411.5 ± 2.9 m/s
same,mass density,[2]; 303.15 K,1288.61 ± 2.1 kg/m3
same,speed of sound,[2]; 308.15 K,1399 ± 2.9 m/s
same,mass density,[2]; 308.15 K,1284.72 ± 2.1 kg/m3
same,speed of sound,[2]; 313.15 K,1386.9 ± 2.9 m/s
same,mass density,[2]; 313.15 K,1280.82 ± 2.1 kg/m3
same,speed of sound,[2]; 318.15 K,1375 ± 2.9 m/s
same,mass density,[2]; 318.15 K,1276.37 ± 2.1 kg/m3
same,speed of sound,[2]; 323.15 K,1363.3 ± 2.9 m/s
same,mass density,[2]; 323.15 K,1272.45 ± 2.1 kg/m3
CCCCCCCC[n+]1ccn(C)c1.F[P-](F)(F)(F)(F)F [1-octyl-3-methylimidazolium hexafluorophosphate],refractive index,[1]; 293.15 K,1.42441 ± 0.0017
same,refractive index,[1]; 298.15 K,1.42312 ± 0.0017
same,refractive index,[1]; 303.15 K,1.42171 ± 0.0017
same,refractive index,[1]; 308.15 K,1.42029 ± 0.0017
same,refractive index,[1]; 313.15 K,1.41888 ± 0.0017
same,refractive index,[1]; 318.15 K,1.4175 ± 0.0017
same,refractive index,[1]; 323.15 K,1.41601 ± 0.0017
same,speed of sound,[2]; 293.15 K,1421.2 ± 2.9 m/s
same,mass density,[2]; 293.15 K,1238.77 ± 2 kg/m3
same,speed of sound,[2]; 298.15 K,1406.5 ± 2.9 m/s
same,mass density,[2]; 298.15 K,1234.79 ± 2 kg/m3
same,speed of sound,[2]; 303.15 K,1392.4 ± 2.9 m/s
same,mass density,[2]; 303.15 K,1230.84 ± 2 kg/m3
same,speed of sound,[2]; 308.15 K,1379 ± 2.9 m/s
same,mass density,[2]; 308.15 K,1227.09 ± 2 kg/m3
same,speed of sound,[2]; 313.15 K,1365.8 ± 2.9 m/s
same,mass density,[2]; 313.15 K,1223.3 ± 2 kg/m3
same,speed of sound,[2]; 318.15 K,1351.2 ± 2.9 m/s
same,mass density,[2]; 318.15 K,1219.5 ± 2 kg/m3
same,speed of sound,[2]; 323.15 K,1338 ± 2.9 m/s
same,mass density,[2]; 323.15 K,1215.42 ± 2 kg/m3
C1CCOC1 [tetrahydrofuran],refractive index,[1]; 293.15 K,1.40696 ± 0.0016
same,refractive index,[1]; 298.15 K,1.4042 ± 0.0016
same,refractive index,[1]; 303.15 K,1.40157 ± 0.0016
same,refractive index,[1]; 308.15 K,1.39885 ± 0.0016
same,refractive index,[1]; 313.15 K,1.39623 ± 0.0016
same,refractive index,[1]; 318.15 K,1.39349 ± 0.0016
same,refractive index,[1]; 323.15 K,1.39083 ± 0.0016
same,speed of sound,[2]; 293.15 K,1305 ± 2.3 m/s
same,mass density,[2]; 293.15 K,888.766 ± 1.6 kg/m3
same,speed of sound,[2]; 298.15 K,1280.8 ± 2.2 m/s
same,mass density,[2]; 298.15 K,883.297 ± 1.6 kg/m3
same,speed of sound,[2]; 303.15 K,1256.8 ± 2.2 m/s
same,mass density,[2]; 303.15 K,877.809 ± 1.6 kg/m3
same,speed of sound,[2]; 308.15 K,1232.9 ± 2.2 m/s
same,mass density,[2]; 308.15 K,872.279 ± 1.6 kg/m3
same,speed of sound,[2]; 313.15 K,1209.2 ± 2.2 m/s
same,mass density,[2]; 313.15 K,866.713 ± 1.6 kg/m3
same,speed of sound,[2]; 318.15 K,1185.7 ± 2.2 m/s
same,mass density,[2]; 318.15 K,861.106 ± 1.6 kg/m3
same,speed of sound,[2]; 323.15 K,1162.3 ± 2.2 m/s
same,mass density,[2]; 323.15 K,855.456 ± 1.6 kg/m3
C1CCOC1 [tetrahydrofuran] + CCCCCCCC[n+]1ccn(C)c1.F[P-](F)(F)(F)(F)F,refractive index,[3]; 293.15 K,1.40696 ± 0.0016
same,refractive index,[3]; 298.15 K,1.4042 ± 0.0016
same,refractive index,[3]; 303.15 K,1.40157 ± 0.0016
same,refractive index,[3]; 308.15 K,1.39885 ± 0.0016
same,refractive index,[3]; 313.15 K,1.39623 ± 0.0016
same,refractive index,[3]; 318.15 K,1.39349 ± 0.0016
same,refractive index,[3]; 323.15 K,1.39083 ± 0.0016
same,speed of sound,[4]; 293.15 K,1305 ± 2.3 m/s
same,mass density,[4]; 293.15 K,888.766 ± 1.6 kg/m3
same,speed of sound,[4]; 298.15 K,1280.8 ± 2.2 m/s
same,mass density,[4]; 298.15 K,883.297 ± 1.6 kg/m3
same,speed of sound,[4]; 303.15 K,1256.8 ± 2.2 m/s
same,mass density,[4]; 303.15 K,877.809 ± 1.6 kg/m3
same,speed of sound,[4]; 308.15 K,1232.9 ± 2.2 m/s
same,mass density,[4]; 308.15 K,872.279 ± 1.6 kg/m3
same,speed of sound,[4]; 313.15 K,1209.2 ± 2.2 m/s
same,mass density,[4]; 313.15 K,866.713 ± 1.6 kg/m3
same,speed of sound,[4]; 318.15 K,1185.7 ± 2.2 m/s
same,mass density,[4]; 318.15 K,861.106 ± 1.6 kg/m3
same,speed of sound,[4]; 323.15 K,1162.3 ± 2.2 m/s
same,mass density,[4]; 323.15 K,855.456 ± 1.6 kg/m3
C1CCOC1 [tetrahydrofuran] + CCCCCCn1cc[n+](C)c1.F[P-](F)(F)(F)(F)F,refractive index,[3]; 293.15 K,1.40696 ± 0.0016
same,refractive index,[3]; 298.15 K,1.4042 ± 0.0016
same,refractive index,[3]; 303.15 K,1.40157 ± 0.0016
same,refractive index,[3]; 308.15 K,1.39885 ± 0.0016
same,refractive index,[3]; 313.15 K,1.39623 ± 0.0016
same,refractive index,[3]; 318.15 K,1.39349 ± 0.0016
same,refractive index,[3]; 323.15 K,1.39083 ± 0.0016
same,speed of sound,[4]; 293.15 K,1305 ± 2.3 m/s
same,mass density,[4]; 293.15 K,888.766 ± 1.6 kg/m3
same,speed of sound,[4]; 298.15 K,1280.8 ± 2.2 m/s
same,mass density,[4]; 298.15 K,883.297 ± 1.6 kg/m3
same,speed of sound,[4]; 303.15 K,1256.8 ± 2.2 m/s
same,mass density,[4]; 303.15 K,877.809 ± 1.6 kg/m3
same,speed of sound,[4]; 308.15 K,1232.9 ± 2.2 m/s
same,mass density,[4]; 308.15 K,872.279 ± 1.6 kg/m3
same,speed of sound,[4]; 313.15 K,1209.2 ± 2.2 m/s
same,mass density,[4]; 313.15 K,866.713 ± 1.6 kg/m3
same,speed of sound,[4]; 318.15 K,1185.7 ± 2.2 m/s
same,mass density,[4]; 318.15 K,861.106 ± 1.6 kg/m3
same,speed of sound,[4]; 323.15 K,1162.3 ± 2.2 m/s
same,mass density,[4]; 323.15 K,855.456 ± 1.6 kg/m3
C1CCOC1 [tetrahydrofuran] + CCCCn1cc[n+](C)c1.F[P-](F)(F)(F)(F)F,refractive index,[3]; 293.15 K,1.40696 ± 0.0016
same,refractive index,[3]; 298.15 K,1.4042 ± 0.0016
same,refractive index,[3]; 303.15 K,1.40157 ± 0.0016
same,refractive index,[3]; 308.15 K,1.39885 ± 0.0016
same,refractive index,[3]; 313.15 K,1.39623 ± 0.0016
same,refractive index,[3]; 318.15 K,1.39349 ± 0.0016
same,refractive index,[3]; 323.15 K,1.39083 ± 0.0016
same,speed of sound,[4]; 293.15 K,1305 ± 2.3 m/s
same,mass density,[4]; 293.15 K,888.766 ± 1.6 kg/m3
same,speed of sound,[4]; 298.15 K,1280.8 ± 2.2 m/s
same,mass density,[4]; 298.15 K,883.297 ± 1.6 kg/m3
same,speed of sound,[4]; 303.15 K,1256.8 ± 2.2 m/s
same,mass density,[4]; 303.15 K,877.809 ± 1.6 kg/m3
same,speed of sound,[4]; 308.15 K,1232.9 ± 2.2 m/s
same,mass density,[4]; 308.15 K,872.279 ± 1.6 kg/m3
same,speed of sound,[4]; 313.15 K,1209.2 ± 2.2 m/s
same,mass density,[4]; 313.15 K,866.713 ± 1.6 kg/m3
same,speed of sound,[4]; 318.15 K,1185.7 ± 2.2 m/s
same,mass density,[4]; 318.15 K,861.106 ± 1.6 kg/m3
same,speed of sound,[4]; 323.15 K,1162.3 ± 2.2 m/s
same,mass density,[4]; 323.15 K,855.456 ± 1.6 kg/m3
